Measured values published in patent US12552753B2, “Methods and compositions for targeting Tregs using CCR8 inhibitors” (Nanjing Immunophage Biomedical Co., Ltd., priority 2020, dated 2026).
Read-outs that look alike come from different tables or passages of the source.

Target: CCR8 (Homo sapiens, UniProt P51685)
Assay: Tango assay (Tango-CCR8-Gal4-CHO-K1 cells, CCL1-stimulated, ONE-Glo luminescence)
[1] = Tango Assay IC50, Inhibition of CCR8 Tango cell in vitro
[2] = read-out: Tango Assay IC50, Inhibition of CCR8 Tango cell in vitro

Sequence of CCR8 (P51685 whole entry, the tested form may be a part): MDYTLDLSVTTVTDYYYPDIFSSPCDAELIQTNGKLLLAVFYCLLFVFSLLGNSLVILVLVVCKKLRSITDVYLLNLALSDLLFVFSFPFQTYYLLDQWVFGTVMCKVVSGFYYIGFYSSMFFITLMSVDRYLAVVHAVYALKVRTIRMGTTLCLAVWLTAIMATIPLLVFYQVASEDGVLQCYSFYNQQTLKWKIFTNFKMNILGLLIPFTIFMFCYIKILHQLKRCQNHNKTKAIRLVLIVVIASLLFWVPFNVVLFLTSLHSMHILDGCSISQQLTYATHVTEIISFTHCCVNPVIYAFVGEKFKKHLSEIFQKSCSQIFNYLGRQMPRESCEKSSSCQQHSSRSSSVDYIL

SMILES | IC50 [1] | IC50 [2]
CCCC(=O)N1CCCC(C(C)NS(=O)(=O)c2ccc(NC(=O)c3ccccc3C)c3ccccc23)C1 (stereo not drawn) [Compound 16, N-(4-(N-(1-(1-butyrylpiperidin-3-yl)ethyl)sulfamoyl)naph-thalen-1-yl)-2-methylbenzamide] |  | 500 nM
Cc1ccccc1C(=O)Nc1ccc(S(=O)(=O)NC(C)C2CCCNC2)c2ccccc12 (stereo not drawn) [Compound 17, 2-methyl-N-(4-(N-(1-(piperidin-3-yl)ethyl)sulfamoyl)naph-thalen-1-yl)benzamide] |  | 112 nM
Cc1ccccc1C(=O)Nc1ccc(S(=O)(=O)Nc2ccc3c(c2)N(CCN(C)C)C(=O)CO3)c2ccccc12 [Compound 20, N-(4-(N-(4-(2-(dimethylamino)ethyl)-3-oxo-3,4-dihydro-2H-benzo[b][1,4]oxazin-6-yl)sulfamoyl)naphthalen-1-yl)-2-methylbenzamide] | > 10000 nM | 
Cc1ccccc1C(=O)Nc1ccc(S(=O)(=O)Nc2ccc3c(c2)N(CCN(C)C)CCO3)c2ccccc12 [Compound 23, N-(4-(N-(4-(2-(dimethylamino)ethyl)-3,4-dihydro-2H-benzo[b][1,4]oxazin-6-yl)sulfamoyl)naphthalen-1-yl)-2-methylbenzamide] | > 10000 nM | 
Cc1ccccc1C(=O)Nc1ccc(S(=O)(=O)Nc2ccc3c(c2)N(CCN(C)C)CC3)c2ccccc12 [Compound 33, N-(4-(N-(1-(2-(dimethylamino)ethyl)indolin-6-yl)sulfamoyl)naphthalen-1-yl)-2-methylbenzamide] | > 10000 nM | 
Cc1ccccc1C(=O)Nc1ccc(S(=O)(=O)Nc2ccc3c(c2)CN(CCCN(C)C)C3)c2ccccc12 [Compound 35, N-(4-(N-(2-(3-(dimethylamino)propyl)isoindolin-5-yl)sulfamoyl)naphthalen-1-yl)-2-methylbenzamide] | > 10000 nM | 
Cc1ccccc1C(=O)Nc1ccc(S(=O)(=O)Nc2ccc3c(c2)N(C(=O)CN(C)C)CC3)c2ccccc12 [Compound 36, N-(4-(N-(1-(2-(dimethylamino)acetyl)indolin-6-yl)sulfamoyl)naphthalen-1-yl)-2-methylbenzamide] | > 10000 nM | 
Cc1ccccc1C(=O)Nc1ccc(S(=O)(=O)Nc2ccc3c(c2)CN(C(=O)CN(C)C)C3)c2ccccc12 [Compound 37, N-(4-(N-(2-(2-(dimethylamino)acetyl)isoindolin-5-yl)sulfamoyl)naphthalen-1-yl)-2-methylbenzamide] | > 10000 nM | 
COc1cc2c(cc1NS(=O)(=O)c1ccc(NC(=O)c3ccccc3C)c3ccccc13)N(C(C)=O)CC2 [Compound 39, N-(4-(N-(1-acetyl-5-methoxyindolin-6-yl)sulfamoyl)naphthalen-1-yl)-2-methylbenzamide] | > 10000 nM | 
CC(=O)N1CC(C)(C)c2ccc(NS(=O)(=O)c3ccc(NC(=O)c4ccccc4C)c4ccccc34)cc21 [Compound 40, N-(4-(N-(1-acetyl-3,3-dimethylindolin-6-yl)sulfamoyl)naphthalen-1-yl)-2-methylbenzamide] | > 10000 nM | 
Cc1ccccc1C(=O)Nc1ccc(S(=O)(=O)Nc2ccc3c(c2)CN(C(=O)CN(C)C)CC3)c2ccccc12 [Compound 41, N-(4-(N-(2-(2-(dimethylamino)acetyl)-1,2,3,4-tetrahydroisoquinolin-7-yl)sulfamoyl)naphthalen-1-yl)-2-methylbenzamide] | > 10000 nM | 
Cc1ccccc1C(=O)Nc1ccc(S(=O)(=O)Nc2ccc3c(c2)CCN(C(=O)CN(C)C)C3)c2ccccc12 [Compound 42, N-(4-(N-(2-(2-(dimethylamino)acetyl)-1,2,3,4-tetrahydroisoquinolin-6-yl)sulfamoyl)naphthalen-1-yl)-2-methylbenzamide] | > 10000 nM | 
CCCC(=O)NC12CC(NS(=O)(=O)c3ccc(NC(=O)c4ccccc4C)c4ccccc34)(C1)C2 [Compound 43, N-(4-(N-(3-butyramidobicyclo[1.1.1]pentan-1-yl)sulfamoyl)naphthalen-1-yl)-2-methylbenzamide] | > 10000 nM | 
CN1CCN(C(=O)N2CCC(NS(=O)(=O)c3ccc4[nH]c(-c5ccccc5)nc4c3)CC2)CC1 [Compound 44, N-(1-(4-methylpiperazine-1-carbonyl)piperidin-4-yl)-2-phenyl-1H-m benzo[d]imidazole-5-sulfonamide] | > 10000 nM | 
Cc1ccccc1C(=O)Nc1ccc(S(=O)(=O)NC2CCC(C(=O)N3CCN(C)CC3)CC2)c2ccccc12 (stereo not drawn) [Compound 46, 2-methyl-N-(4-(N-(4-(4-methylpiperazine-1-carbonyl)cyclohexyl)sul-famoyl)naphthalen-1-yl)benzamide] | > 10000 nM | 

Second part, the compound after the results:

IC50 [1] | IC50 [2] | SMILES
> 10000 nM |  | CCOC(=O)N1CCCC(C(=O)NS(=O)(=O)c2ccc(NC(=O)c3ccccc3C)c3ccccc23)C1 (stereo not drawn) [Compound 5, ethyl 3-(((4-(2-methylbenzamido)naph-thalen-1-yl)sulfonyl)carbamoyl) piperidine-1-carboxylate]
> 10000 nM |  | CCCC(=O)N1CCCC1C(=O)NS(=O)(=O)c1ccc(NC(=O)c2ccccc2C)c2ccccc12 (stereo not drawn) [Compound 7, 1-butyryl-N-((4-(2-methylbenzamido)naph-thalen-1-yl)sulfonyl)pyrrolidine-2-carboxamide]
> 10000 nM |  | CCCC(=O)N1CCCC(C(=O)NS(=O)(=O)c2ccc(NC(=O)c3ccccc3C)c3ccccc23)C1 (stereo not drawn) [Compound 9, 1-butyryl-N-((4-(2-methylbenzamido)naph-thalen-1-yl)sulfonyl)piperidine-3-carboxamide]
> 10000 nM |  | Cc1ccccc1C(=O)Nc1ccc(S(=O)(=O)NC(=O)c2cccc(N(C)C)c2)c2ccccc12 [Compound 10, N-(4-(N-(3-(dimethylamino)benzoyl)sulfamoyl)naphthalen-1-yl)-2-methylbenzamide]
> 10000 nM |  | CCCN1CCN(c2cccc(C(=O)NS(=O)(=O)c3ccc(NC(=O)c4ccccc4C)c4ccccc34)c2)CC1 [Compound 11, 2-methyl-N-(4-(N-(3-(4-propylpiperazin-1-yl)benzoyl)sulfamoyl)naphthalen-1-yl)benzamide]
> 10000 nM |  | Cc1ccccc1C(=O)Nc1ccc(S(=O)(=O)NC(=O)c2ccccc2N2CCCCC2)c2ccccc12 [Compound 12, 2-methyl-N-(4-(N-(2-(piperidin-1-yl)benzoyl)sulfamoyl)naphthalen-1-yl)benzamide]
> 10000 nM |  | Cc1ccccc1C(=O)Nc1ccc(S(=O)(=O)NC(=O)c2ccccc2N2CCOCC2)c2ccccc12 [Compound 13, 2-methyl-N-(4-(N-(2-morpholinobenzoyl)sul-famoyl)naphthalen-1-yl)benzamide]
> 10000 nM |  | CCCC(=O)N1CCCC(CNS(=O)(=O)c2ccc(NC(=O)c3ccccc3C)c3ccccc23)C1 (stereo not drawn) [Compound 14, N-(4-(N-((1-butyrylpiperidine-3-yl)methyl)sulfamoyl)naphthalen-1-yl)-2-methylbenzamide]
> 10000 nM |  | CCCC(=O)N1CCC(CNS(=O)(=O)c2ccc(NC(=O)c3ccccc3C)c3ccccc23)C1 (stereo not drawn) [Compound 15, N-(4-(N-((1-butyrylpyrrolidin-3-yl)methyl)sulfamoyl)naphthalen-1-yl)-2-methylbenzamide]
> 10000 nM |  | CN(C)CC(=O)N1CCOc2ccc(NS(=O)(=O)c3ccc4ccccc4c3)cc21 [Compound 22, N-(4-(2-(dimethylamino)acetyl)-3,4-dihydro-2H-benzo[b][1,4]oxazin-6-yl)naphthalene-2-sulfonamide]
930 nM |  | Cc1ccccc1C(=O)Nc1ccc(S(=O)(=O)NC(C)C2CCCN(C(=O)OC(C)(C)C)C2)c2ccccc12 (stereo not drawn) [Compound 24, tert-butyl 3-(1-(4-(2-methylbenzamido)naph-thalene-1-sulfonamido)ethyl)piper-idine-1-carboxylate]
1040 nM |  | Cc1ccccc1C(=O)Nc1ccc(S(=O)(=O)NCc2cccc(N(C)C)c2)c2ccccc12 [Compound 25, N-(4-(N-(3-(dimethylamino)benzyl)sulfamoyl)naphthalen-1-yl)-2-methylbenzamide]
83 nM |  | Cc1ccccc1C(=O)Nc1ccc(S(=O)(=O)NC(C)c2cccc(N(C)C)c2)c2ccccc12 (stereo not drawn) [Compound 26, N-(4-(N-(1-(3-(dimethylamino)phenyl)ethyl)sulfamoyl)naph-thalen-1-yl)-2-methylbenzamide]
19 nM |  | Cc1ccccc1C(=O)Nc1ccc(S(=O)(=O)NC2CCCc3ccccc32)c2ccccc12 (stereo not drawn) [Compound 28, 2-methyl-N-(4-(N-(1,2,3,4-tetrahydronaphthalen-1-yl)sulfamoyl)naphtha-len-1-yl)benzamide]
26 nM |  | Cc1ccccc1C(=O)Nc1ccc(S(=O)(=O)NC2CCOc3ccccc32)c2ccccc12 (stereo not drawn) [Compound 29, N-(4-(N-(chroman-4-yl)sulfamoyl)naphthalen-1-yl)-2-methylbenzamide]
73 nM |  | Cc1ccccc1C(=O)Nc1ccc(S(=O)(=O)NC2CCNc3ccccc32)c2ccccc12 (stereo not drawn) [Compound 30, 2-methyl-N-(4-(N-(1,2,3,4-tetrahydroquinolin-4-yl)sulfamoyl)naphthalen-1-yl)benzamide]
1080 nM |  | CC(=O)N1CCC(NS(=O)(=O)c2ccc(NC(=O)c3ccccc3C)c3ccccc23)c2ccccc21 (stereo not drawn) [Compound 31, N-(4-(N-(1-acetyl-1,2,3,4-tetrahydroquinolin-4-yl)sulfamoyl)naphthalen-1-yl)-2-methylbenzamide]
89 nM |  | Cc1ccccc1C(=O)Nc1ccc(S(=O)(=O)NC2CCN(C)c3ccccc32)c2ccccc12 (stereo not drawn) [Compound 32, 2-methyl-N-(4-(N-(1-methyl-1,2,3,4-tetrahydroquinolin-4-yl)sulfamoyl)naphthalen-1-yl)benzamide]
1680 nM |  | Cc1ccccc1C(=O)Nc1ccc(S(=O)(=O)N(C)c2ccc3c(c2)N(C(=O)CN(C)C)CC3)c2ccccc12 [Compound 38, N-(4-(N-(1-(2-(dimethylamino)acetyl)indolin-6-yl)-N-methylsulfamoyl)naph-thalen-1-yl)-2-methylbenzamide]
2700 nM |  | Cc1ccccc1C(=O)Nc1ccc(S(=O)(=O)NC2CCC(C(=O)N(C)C)CC2)c2ccccc12 (stereo not drawn) [Compound 45, N-(4-(N-(4-(dimethylcarbamoyl)cy-clohexyl)sulfamoyl)naph-thalen-1-yl)-2-methylbenzamide]
23 nM |  | Cc1ccccc1C(=O)Nc1ccc(S(=O)(=O)N[C@@H]2CCN3C(=O)CC[C@@H]3C2)c2ccccc12 [Compound 47, 2-methyl-N-(4-(N-((7R,8aR)-3-oxooctahydroindolizin-7-yl)sulfamoyl)naphthalen-1-yl)benzamide]
